From US20130115671A1, “ENZYMES FROM CONIDIOBOLUS BREFELDIANUS AND PROCESS FOR PREPARATION THEREOF” (Council of Scientific and Industrial Research, priority 2010, published 2013)
Read-outs that look alike come from different tables or passages of the source.

What was measured:
[1] = tested on: protease from Conidiobolus brefeldianus MTCC 5185; assay: Stability of protease in presence of organic solvents at 28° C.; assay type: physicochemical; set-up: key to residual activity of protease, 0 h / residual activity of protease, 12 h: % of initial activity with respective solvent (initial = 100%); conditions: crude protease, 20% (v/v) solvent
Description: This example illustrates the effect of water miscible as well as water immiscible organic solvents on stability of crude protease at 28° C. […] Samples were removed at different time intervals and residual activity was estimated. Sample without organic solvent served as control. Initial activity with respective solvents was taken as 100% (Table 17). […] (Table 17).

[2] = tested on: protease from Conidiobolus brefeldianus MTCC 5185; assay: Stability of protease in presence of organic solvents at 37° C.; assay type: physicochemical; conditions: 20% (v/v) solvent; for Residual Activity (%) of protease, 30 min: pH 7, 30 min; for Residual Activity (%) of protease, 60 min: pH 7, 60 min; for Residual Activity (%) of protease, 120 min: pH 7, 120 min; for Residual Activity (%) of protease, 240 min: pH 7, 240 min; for Residual Activity (%) of protease, 0: crude protease, pH 7, 0 min
Description: This example illustrates the effect of water miscible as well as water immiscible organic solvents on stability of crude protease at 37° C. […] Samples were removed at different time intervals and residual activity was estimated. Sample without organic solvent served as control.

[3] = tested on: protease secreted by Conidiobolus brefeldianus MTCC 5185; assay: Effect of metals on protease activity; assay type: biochemical
[4] = tested on: protease from Conidiobolus brefeldianus MTCC 5185
Description: This example illustrates the stability of the protease in presence of salts. […] Aliquots were removed at regular intervals of 30 min and residual activity was estimated at 50° C., pH 9.

[5] = tested on: protease of Conidiobolus brefeldianus MTCC 5185; assay: Effect of inhibitors on protease activity (PMSF, EDTA, iodoacetate, DMSO); assay type: biochemical
Source text: This example illustrates the effect of inhibitors on protease activity of Conidiobolus brefeldianus MTCC 5185. Following inhibitors were studied: phenylmethylsulfonyl fluoride (PMSF), ethylene-diaminetetraacetic acid (EDTA), iodoacetic acid, and dimeth ylsulphoxide (DMSO). The crude culture filtrate grown as described in example 3 was concentrated by ultra-filtration on PM-10 and YM-3 membranes as described in example 27 and used for inhibition studies. Both the protease preparations were pre-incubated in 100 mM Tris-HCl buffer (pH 8.0) with each inhibitor for 1 h and the residual protease activity was measured at 50° C., pH 9.0. Protease without inhibitor served as control.

[6] = tested on: protease from Conidiobolus brefeldianus MTCC 5185; assay: Stability of protease at 50° C. in presence of sugar alcohols; assay type: physicochemical; set-up: unit not given here
Description: Ultrafiltered protease as described in example 27 was incubated at 50° C. in presence of glycerol, mannitol, sorbitol and xylitol at 20% concentration up to 3 h. Aliquots were removed at regular intervals of 30 min and residual activity was estimated at 50° C., pH 9.

[7] = metal 5 mM in assay mixture, crude protease
[8] = pre-incubated 1 h, pH 8.0, 20 mM EDTA, 10 mM Iodoacetate, 1 mM PMSF (in DMSO), DMSO

| SMILES | residual activity of protease, 0 h [1] | residual activity of protease, 5 h [1] | residual activity of protease, 12 h [1] | Residual Activity (%) of protease, 30 min [2] [%] | Residual Activity (%) of protease, 60 min [2] [%] | Residual Activity (%) of protease, 120 min [2] [%] | Residual Activity (%) of protease, 240 min [2] [%] | Residual Activity (%) of protease, 0 [2] [%] | Relative Activity (%) of protease [3, 7] [%] | also measured |
| --- | --- | --- | --- | --- | --- | --- | --- | --- | --- | --- |
| CC(C)=O [Acetone, acetone] | 100 | 95.66 | 55.51 | 91.66 | 81.10 | 60.57 | 29.53 | 100 |  |  |
| CC#N [Acetonitrile, acetonitrile] | 100 | 98.31 | 49.90 | 37.19 | 36.40 | 17.52 | 13.45 | 100 |  |  |
| [Ca+2].[Cl-].[Cl-] [CaCl2, Calcium chloride] |  |  |  |  |  |  |  |  |  | Relative Activity (%) of protease [3]: 118.25%; effect on protease activity [3]: active; Residual Activity (%) of protease at 50° C. ([4]; 10 mM CaCl2, 0.5M NaCl, 0.5M glycine or 15% (NH4)2SO4, 0 min): 100.00%; Residual Activity (%) of protease at 50° C. ([4]; salt concentration as in column head, 30 min): 91.70%; Residual Activity (%) of protease at 50° C. ([4]; salt concentration as in column head, 60 min): 83.17%; Residual Activity (%) of protease at 50° C. ([4]; salt concentration as in column head, 90 min): 70.83%; Residual Activity (%) of protease at 50° C. ([4]; salt concentration as in column head, 120 min): 63.83%; Residual Activity (%) of protease at 50° C. ([4]; salt concentration as in column head, 180 min): 54.65%; Residual Activity (%) of protease at 50° C. ([4]; salt concentration as in column head, 180 min, listed as Calcium chloride): around 55% |
| [Cl][Cd][Cl] [CdCl2] |  |  |  |  |  |  |  |  | 114.30 | effect on protease activity ([3]; metal 5 mM): active |
| [Cl-].[Cl-].[Co+2] [CoCl2] |  |  |  |  |  |  |  |  |  | Relative Activity (%) of protease [3]: 118.71%; effect on protease activity [3]: active |
| [Cl][Cu][Cl] [CuCl2] |  |  |  |  |  |  |  |  | 12.78 |  |
| O=C(O)CN(CCN(CC(=O)O)CC(=O)O)CC(=O)O [EDTA, ethylene-diaminetetraacetic acid] |  |  |  |  |  |  |  |  |  | Inhibition (%) PM-10 Retentate [5, 8]: 0.0%; Inhibition (%) YM-3 Retentate [5, 8]: 3.93% |
| [Cl][Hg][Cl] [HgCl2] |  |  |  |  |  |  |  |  | 3.27 | effect on protease activity ([3]; metal 5 mM): totally inhibited |
| O=C(O)CI [Iodoacetate, iodoacetic acid] |  |  |  |  |  |  |  |  |  | Inhibition (%) PM-10 Retentate ([5]; pH 8): 0.0%; Inhibition (%) YM-3 Retentate ([5]; pH 8): 16.54% |
| CC(C)O [Isopropanol, isopropanol] | 100 | 100.29 | 57.79 | 46.06 | 34.35 | 18.73 | 17.11 | 100 |  |  |
| [Cl-].[K+] [KCl] |  |  |  |  |  |  |  |  | 158.50 | effect on protease activity ([3]; metal 5 mM): active |
| OC[C@@H](O)[C@@H](O)[C@H](O)[C@H](O)CO [Mannitol, mannitol] |  |  |  |  |  |  |  |  |  | residual activity of protease at 50° C. ([6]; 20% sugar alcohol, 30 min): 74.06; residual activity of protease at 50° C. ([6]; 20% sugar alcohol, 60 min): 64.42; residual activity of protease at 50° C. ([6]; 20% sugar alcohol, 90 min): 58.13; residual activity of protease at 50° C. ([6]; 20% sugar alcohol, 120 min): 48.66; residual activity of protease at 50° C. ([6]; 20% sugar alcohol, 180 min): 40.71; residual activity of protease at 50° C. ([6]; ultrafiltered protease with 20% sugar alcohol, 0 min): 100 |
| CO [Methanol, methanol] | 100 | 100.13 | 52.64 | 59.43 | 59.45 | 48.36 | 16.60 | 100 |  |  |
